Test results published in patent US20260021122A1, “CANNABINOIDS AND USES THEREOF IN TREATMENT OF A DISEASE” (TECHNION RESEARCH & DEVELOPMENT FOUNDATION LIMITED, priority 2022, published 2026).

What was measured:
[1] = system: CSF-1; assay: CSF-1 protein levels in B16F10 cells by confocal microscopy and western blot; format: cell-based, murine; conditions: 1.5 μg/ml CBG or 2 μg/ml 3704, 24 hours, both methods
Procedure: B16F10 cells were seeded on 13 mm coverslips (Bar Naor Ltd., Cat #BN1001-13-1CN) and treated with either synthetic CBG or Cannabis extract 3704 for 24 hours. Then, cells were fixed at room temperature with 4% PFA (Electron Microscopy Sciences, Cat #15710) in PBS (Sartorius, Cat #02-023-1A) for 20 minutes, permeabilized by 0.3% Triton-100× (Sigma, Cat #T8787) in PBS for 10 minutes and Blocked with a solution containing 5% Normal Goat Serum (Abcam, Cat #ab7481), 0.25% Gelatin (Sigma-Aldrich, Cat #G7041) and 0.1% Triton-X100 in PBS for 1 hour. […] Analysis was conducted using the IMARIS software and results were calculated using the formula: mean AF-488 intensity divided by the number of nuclei.
B16F10 cells, and sorted MO-MDSC and PMN-MDSC achieved as described, were lysed in RIPA buffer (Sigma, Cat #R0278) supplemented with Protease/Phosphatase Inhibitor Cocktail (Cell signaling, Cat #5872S) on ice for 20 minutes. Total protein concentrations were measured using the detergent-compatible protein assay (Bio-Rad, Cat #5000113 and 5000114) and equal amounts were loaded onto a 4%-20% gradient gel (Invitrogen, Cat #XPO4202) and semidry transferred into a nitrocellulose membrane (Bio-Rad, Cat #1704159). […]

[2] = system: B16F10 tumors; assay: Myeloid cell and CD3+ T-cell frequencies in excised B16F10 tumors (spectral flow cytometry); format: in vivo, mice; conditions: CBG 2.5 mg/kg or 3704 3.75 mg/kg i.p., tumors day 14
Procedure: All procedures involving animals were conducted in accordance with the standards approved by the Technion Animal Care and Use Ethics Committee and the studies adhered to the Technion Code for Experimentation on Animals. To induce tumors, B16F10 cells grown to a confluency of ˜75% were resuspended to a concentration of 1×10^6 cells in 200 ul sterile PBS and transplanted subcutaneously into the right flank of 8-10-week-old female WT C57B6/L mice (Envigo, 16.8±0.78 g). After either 24 hours or 3 days, mice were randomly divided into groups and treated as indicated with either a vehicle of Cannabis extract solvent (18:1:1 ratio of DDW+0.9% NaCl, Sigma, Cat #S7653; Cremophor® EL, Cat #238470; Ethanol, Sigma, #Cat 111727), CAN (100 mg/kg), synthetic CBG (2.5 mg/kg) or 3704 (3.75 mg/kg) for 5 days, then 2 days off and again for 4 days. Tumor volume was measured from day 10 to 14 (endpoint) using a vernier caliper and calculated according to the formula […] and all tumors were weighed at the endpoint of the experiments with an analytical scale.
To prepare single-cell suspensions from the tumors, on day 14 the tumors were excised from the mice and placed in Hanks' Balanced Salt solution (HBSS, Sigma; Cat #H6648) containing 20 mg/ml DNase I (Sigma, Cat #D5025), 1 mg/ml collagenase D from Clostridium histolyticum (Sigma-Aldrich, Cat #C5138) and 0.1 mg/ml hyaluronidase (Sigma-Aldrich, Cat #6254). Tumors were mechanically digested using a scalpel and the gentleMACS™M Dissociator (Miltenyi Biotec). The resulting solution was filtered through a 100 μm filter (Alex Red Ltd. Cat #SO SCS1002) and centrifuged for 10 minutes at 400×g. The supernatant was further used for cytokine and chemokine concentration measurements. For the characterization of myeloid cell frequencies in tumors, the cell pellet was further processed as follows: red blood cells were lysed using the red blood lysis buffer (Biological industries, Cat #01-888-1B), which was neutralized by washing with PBS+2% FBS and centrifuging 10 minutes at 400×g. After centrifugation, cells were resuspended in 40% percoll gradient solution (prepared from 100% percoll, Cytiva, #17089101) and then 80% percoll was added on top of the 40% solution without mixing. The cell suspension was centrifuged at room temperature for 30 minutes without acceleration and break at 500×g. Cells were isolated from the interphase between the 40% and 80% percoll solutions and washed with PBS +2% FBS. Finally, cells were stained with extracellular markers for CD3+ T-cells and myeloid cells, and subpopulation frequency was measured by spectral flow cytometry using Cytek® Aurora (Cytek Biosciences). […]

`CCCCCc1cc(O)c(C/C=C(\C)CCC=C(C)C)c(O)c1` [CBG, cannabigerol] was tested, and the “CSF-1 protein levels in B16F10 cells” value [1] was “decreased CSF-1 protein levels”, the “CD3 T-cells frequencies in tumors relative to vehicle control” value [2] was “trend of increase in T-cells frequencies” and the “frequencies of MO-MDSC and PMN-MDSC subpopulations in tumors” value [2] was “did not affect”. The “frequency of M2 macrophages in tumors relative to vehicle control” value [2] was “trend of a decreased frequency in M2 macrophages” and the “ratio between M1 and M2 macrophages (M2/M1) relative to vehicle control” value ([2]; calculated for each mouse) was “trend of decreased ratio”.
